Results as given in PubChem BioAssay AID330 (DTP/NCI, 2004).
“And” between values parts separate entries of the source, which are not always exact repeats. Equal entries are not always repeated. Inconclusive results and toxic doses are left out.

System: P388 leukemia ip, CD2F1 mice, survival T/C
Assay: NCI In Vivo Anticancer Drug Screen. Data for tumor model P388 Leukemia (intraperitoneal) in CD2F1 (CDF1) mice
Conditions: endpoint: median survival time, higher = longer survival
In short: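 Mice carrying the transplanted tumor received test compound or vehicle. Survival was recorded in each group, and the value is the treated-group measurement divided by that of the vehicle-treated control group.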

[1] = dose: 25.0 mg/kg/injection, schedule: Q01DX009 (ip), vehicle: distilled water + Tween-80
[2] = dose: 50.0 mg/kg/injection, schedule: Q01DX009 (ip), vehicle: distilled water + Tween-80
[3] = dose: 100.0 mg/kg/injection, schedule: Q01DX009 (ip), vehicle: distilled water + Tween-80
[4] = dose: 200.0 mg/kg/injection, schedule: Q01DX009 (ip), vehicle: distilled water + Tween-80
[5] = dose: 50.0 mg/kg/injection, schedule: Q01DX009 (ip), vehicle: Klucel (hydroxypropylcellulose) (HPC)
[6] = dose: 100.0 mg/kg/injection, schedule: Q01DX009 (ip), vehicle: Klucel (hydroxypropylcellulose) (HPC)
[7] = dose: 200.0 mg/kg/injection, schedule: Q01DX009 (ip), vehicle: Klucel (hydroxypropylcellulose) (HPC)
[8] = dose: 50.0 mg/kg/injection, schedule: Q01DX009 (ip), vehicle: saline with Tween-80
[9] = dose: 100.0 mg/kg/injection, schedule: Q01DX009 (ip), vehicle: saline with Tween-80
[10] = dose: 50.0 mg/kg/injection, schedule: Q01DX005 (ip), vehicle: Klucel (hydroxypropylcellulose) (HPC)
[11] = dose: 50.0 mg/kg/injection, schedule: Q01DX005 (ip), vehicle: saline with Tween-80
[12] = dose: 100.0 mg/kg/injection, schedule: Q01DX005 (ip), vehicle: saline with Tween-80
[13] = dose: 100.0 mg/kg/injection, schedule: Q01DX009 (ip), vehicle: saline
[14] = dose: 200.0 mg/kg/injection, schedule: Q01DX009 (ip), vehicle: saline
[15] = dose: 50.0 mg/kg/injection, schedule: Q01DX009 (ip), vehicle: saline
[16] = dose: 200.0 mg/kg/injection, schedule: Q01DX009 (ip), vehicle: saline with Tween-80

SMILES: Cc1nc(N)nc(N)c1N1CCN(c2ccc(C(=O)NC(C(=O)O)C(=O)O)cc2)CC1
- T/C (dose: 3.75 mg/kg/injection, schedule: Q01DX005 (ip), vehicle: Klucel + Tween-80): 184 % of control
- T/C (dose: 7.5 mg/kg/injection, schedule: Q01DX005 (ip), vehicle: Klucel + Tween-80): 215 % of control
- T/C (dose: 15.0 mg/kg/injection, schedule: Q01DX005 (ip), vehicle: Klucel + Tween-80): 87 % of control

SMILES: CCOC(=O)C1=C(C)NC(C)=C(C(=O)OCC)C1c1cccnc1
- T/C [1]: 101 % of control
- T/C [2]: 103 % of control
- T/C [3]: 94 % of control
- T/C [4]: 93 % of control
- T/C (dose: 400.0 mg/kg/injection, schedule: Q01DX009 (ip), vehicle: distilled water + Tween-80): 88 % of control

SMILES: Cc1ccc2nc(NC(=S)NCCCCNC(=S)Nc3ccc4cc(C)ccc4n3)ccc2c1
- T/C [5]: 98 % of control
- T/C [6]: 94 % of control
- T/C [7]: 89 % of control

SMILES: CC1(C)COC(CC2CCCCC2)=N1
- T/C [8]: 104 % of control
- T/C (dose: 50.0 mg/kg/injection, schedule: Q04DX003 (ip), vehicle: saline with Tween-80): 100 % of control
- T/C [9]: 100 % of control
- T/C (dose: 100.0 mg/kg/injection, schedule: Q04DX003 (ip), vehicle: saline with Tween-80): 104 % of control
- T/C (dose: 200.0 mg/kg/injection, schedule: Q04DX003 (ip), vehicle: saline with Tween-80): 90 % of control

SMILES: O=C1NC2(CCN(Cc3ccccc3)CC2)Nc2ccccc21
- T/C [10]: 99 % of control
- T/C (dose: 100.0 mg/kg/injection, schedule: Q01DX005 (ip), vehicle: Klucel (hydroxypropylcellulose) (HPC)): 99 % of control
- T/C (dose: 200.0 mg/kg/injection, schedule: Q01DX005 (ip), vehicle: Klucel (hydroxypropylcellulose) (HPC)): 97 % of control

SMILES: CCOC1NC(=S)N(C2CCCCC2)C1(C)C (centres undefined)
- T/C (dose: 50.0 mg/kg/injection, schedule: Q01DX009 (ip), vehicle: suspension in saline): 93 % of control
- T/C (dose: 100.0 mg/kg/injection, schedule: Q01DX009 (ip), vehicle: suspension in saline): 92 % of control
- T/C (dose: 200.0 mg/kg/injection, schedule: Q01DX009 (ip), vehicle: suspension in saline): 97 % of control

SMILES: CCCCCCCCCCCCCCCC(=O)Nc1ncc([N+](=O)[O-])s1
- T/C [5]: 86 % of control
- T/C [6]: 96 % of control
- T/C [7]: 96 % of control

SMILES: CC(=O)OC1CC(OC(C)=O)C2(C)CC3=C(O)C(=O)OC3CC(C)C12 (centres undefined)
- T/C (dose: 100.0 mg/kg/injection, schedule: Q04DX002 (ip), vehicle: saline with Tween-80): 97 % of control
- T/C (dose: 200.0 mg/kg/injection, schedule: Q04DX002 (ip), vehicle: saline with Tween-80): 101 % of control

SMILES: CC(NNC(=S)N1CCN(c2ccccn2)CC1)c1cccc[n+]1[O-] (centres undefined)
- T/C [11]: 103 % of control
- T/C [12]: 100 % of control
- T/C (dose: 200.0 mg/kg/injection, schedule: Q01DX005 (ip), vehicle: saline with Tween-80): 91 % of control

SMILES: CCCC(CCC)(C(=O)Nc1ccc2nc(C)cc(N)c2c1)C(=O)Nc1ccc2nc(C)cc(N)c2c1
- T/C [11]: 91 % of control
- T/C [12]: 96 % of control

SMILES: OCC1(O)OCC(O)C(O)C1O (centres undefined)
- T/C [13]: 99 % of control
- T/C [14]: 98 % of control
- T/C (dose: 400.0 mg/kg/injection, schedule: Q01DX009 (ip), vehicle: saline): 105 % of control

SMILES: C[C@]12C=CC(=O)C=C1CC[C@@H]1[C@@H]2CC[C@@]2(C)[C@H]1CC[C@]2(C)O
- T/C [11]: 97 % of control
- T/C [12]: 95 % of control
- T/C [6]: 110 % of control
- T/C [7]: 90 % of control

SMILES: CCOC(=O)NC(C)(C)CN(C(=O)OCC)C(C)C
- T/C (dose: 100.0 mg/kg/injection, schedule: Q04DX003 (ip), vehicle: other): 95 % of control
- T/C (dose: 200.0 mg/kg/injection, schedule: Q04DX003 (ip), vehicle: other): 100 % of control
- T/C (dose: 400.0 mg/kg/injection, schedule: Q04DX003 (ip), vehicle: other): 95 % of control

SMILES: COc1cc2cnc(-c3ccccc3)c(O)c2cc1OC
- T/C (dose: 100.0 mg/kg/injection, schedule: Q04DX003 (ip), vehicle: suspension in saline): 98 % of control
- T/C (dose: 200.0 mg/kg/injection, schedule: Q04DX003 (ip), vehicle: suspension in saline): 94 % of control
- T/C (dose: 400.0 mg/kg/injection, schedule: Q04DX003 (ip), vehicle: suspension in saline): 94 % of control

SMILES: COc1cc([C@@H]2c3cc4c(cc3C[C@@H]3COC(=O)[C@H]32)OCO4)cc(OC)c1OC
- T/C (dose: 12.5 mg/kg/injection, schedule: Q04DX002 (ip), vehicle: saline with Tween-80): 86 % of control
- T/C (dose: 25.0 mg/kg/injection, schedule: Q04DX002 (ip), vehicle: saline with Tween-80): 96 % of control
- T/C (dose: 50.0 mg/kg/injection, schedule: Q04DX002 (ip), vehicle: saline with Tween-80): 106 % of control

SMILES: C[C-]=NCCCl.C[C-]=O.[C-]#[O+].[C-]#[O+].[C-]#[O+].[C-]#[O+].[Re]
- T/C (dose: 12.5 mg/kg/injection, schedule: Q01DX005 (ip), vehicle: Klucel (hydroxypropylcellulose) (HPC)): 102 % of control
- T/C (dose: 25.0 mg/kg/injection, schedule: Q01DX005 (ip), vehicle: Klucel (hydroxypropylcellulose) (HPC)): 89 % of control
- T/C [10]: 93 % of control and 98 % of control

SMILES: CN(C)C1(c2ccc3ccccc3c2)CSC1
- T/C (dose: 100.0 mg/kg/injection, schedule: Q01DX001 (ip), vehicle: saline with Tween-80): 100 % of control
- T/C (dose: 200.0 mg/kg/injection, schedule: Q01DX001 (ip), vehicle: saline with Tween-80): 100 % of control
- T/C (dose: 400.0 mg/kg/injection, schedule: Q01DX001 (ip), vehicle: saline with Tween-80): 96 % of control

SMILES: COc1cc2nc3cc([N+](=O)[O-])ccc3c(NCCNCC(C)(C)O)c2cc1OC
- T/C (dose: 6.25 mg/kg/injection, schedule: Q01DX005 (ip), vehicle: saline with Tween-80): 102 % of control and 105 % of control and 96 % of control
- T/C (dose: 12.5 mg/kg/injection, schedule: Q01DX005 (ip), vehicle: saline with Tween-80): 109 % of control and 115 % of control and 117 % of control
- T/C (dose: 25.0 mg/kg/injection, schedule: Q01DX005 (ip), vehicle: saline with Tween-80): 117 % of control and 118 % of control and 121 % of control

SMILES: C=CC(=O)P(=O)(OCC)OCC
- T/C (dose: 100.0 mg/kg/injection, schedule: Q04DX002 (ip), vehicle: saline): 107 % of control
- T/C (dose: 200.0 mg/kg/injection, schedule: Q04DX002 (ip), vehicle: saline): 103 % of control
- T/C (dose: 400.0 mg/kg/injection, schedule: Q04DX002 (ip), vehicle: saline): 98 % of control

SMILES: C[N+](C)(CCS(=O)(=O)[O-])C1CCCCC1
- T/C [15]: 98 % of control
- T/C [13]: 90 % of control
- T/C [14]: 91 % of control

SMILES: COc1c(Br)cnc2ccccc12
- T/C (dose: 12.5 mg/kg/injection, schedule: Q01DX009 (ip), vehicle: distilled water + Tween-80): 96 % of control
- T/C [1]: 96 % of control
- T/C [2]: 102 % of control
- T/C [3]: 102 % of control
- T/C [4]: 93 % of control

SMILES: CC(=O)Nc1ccc(NC(=S)NC(=O)c2ccccc2)cc1
- T/C [8]: 107 % of control
- T/C [9]: 100 % of control
- T/C [16]: 95 % of control

SMILES: C#CCSc1nnnn1-c1ccccc1
- T/C [8]: 98 % of control
- T/C [9]: 90 % of control
- T/C [16]: 90 % of control

SMILES: O=c1cc(CSc2ncnc3nc[nH]c23)[nH]c(=O)[nH]1
- T/C [15]: 106 % of control
- T/C [13]: 111 % of control
- T/C [14]: 108 % of control

SMILES: S=C1SC2(CCCC2)NC2=C1CCC2
- T/C [8]: 90 % of control
- T/C [9]: 93 % of control
- T/C [16]: 99 % of control

SMILES: COC(=O)c1[se]c(=[Se])[se]c1C(=O)OC
- T/C (dose: 200.0 mg/kg/injection, schedule: Q01DX001 (ip), vehicle: Klucel (hydroxypropylcellulose) (HPC)): 88 % of control

SMILES: C[Si](C)(C)/N=C(/O[Si](C)(C)C)C(F)(F)F
- T/C (dose: 60.0 mg/kg/injection, schedule: Q01DX005 (ip), vehicle: saline): 101 % of control
- T/C (dose: 120.0 mg/kg/injection, schedule: Q01DX005 (ip), vehicle: saline): 111 % of control
- T/C (dose: 240.0 mg/kg/injection, schedule: Q01DX005 (ip), vehicle: saline): 108 % of control

SMILES: N#CCCSC(=S)N1CCCCC1
- T/C (dose: 25.0 mg/kg/injection, schedule: Q01DX009 (ip), vehicle: Klucel (hydroxypropylcellulose) (HPC)): 104 % of control
- T/C [5]: 104 % of control and 87 % of control
- T/C [6]: 98 % of control and 101 % of control
- T/C [7]: 90 % of control and 93 % of control
- T/C (dose: 400.0 mg/kg/injection, schedule: Q01DX009 (ip), vehicle: Klucel (hydroxypropylcellulose) (HPC)): 101 % of control

SMILES: CCOC(=O)NCCCCC([NH-])C(=O)O.CCOC(=O)NCCCCC([NH-])C(=O)O.[Cu+2] (centres undefined)
- T/C [15]: 101 % of control
- T/C [13]: 92 % of control

SMILES: C=CCNC(=S)Nc1ccc(NC(C)=O)c(OC)c1
- T/C [5]: 102 % of control
- T/C [6]: 102 % of control
- T/C [7]: 86 % of control
